Laboratory results published in patent publication US6093732A, “4-hydroxyquinoline-3-carboxamides and hydrazides as antiviral agents” (Pharmacia & Upjohn Company, priority 1998, dated 2000).

Target: T1, HCMV polymerase (Human cytomegalovirus, UniProt P08546)
T1 construct: made in house; host or cells: recombinant baculovirus-infected SF-9 cells
Experiment: HCMV polymerase scintillation proximity assay (SPA), modified version
Assay type: biochemical
Conditions: CMV polymerase; Table 1; modified assay with 4.5 mM DTT, compounds in 100% DMSO; read-out: Antiviral Selective Polymerase IC50 Values, CMV
Experimental: The HCMV polymerase assay is performed using a scintillation proximity assay (SPA) as described in several references, such as N. D. Cook, et al., Pharmaceutical Manufacturing International, pages 49-53 (1992); K. Takeuchi, Laboratory Practice, September issue (1992); U.S. Pat. No. 4,568,649 (1986); which are incorporated by reference herein. Reactions are performed in 96-well plates. The assay is conducted in 100 μl volume with 5.4 mM HEPES (pH 7.5), 11.7 mM KCl, 4.5 mM MgCl2, 0.36 mg/ml BSA, and 90 nM ^3 H-dTTP. Assays are run with and without CHAPS, (3-[(3-Cholamidopropyl)-dimethylammonio]-1-propane-sulfonate) at a final concentration of 2 mM. HCMV polymerase is diluted in enzyme dilution buffer containing 50% glycerol, 250 mM NaCl, 10 mM HEPES (pH 7.5), 100 μg/ml BSA, and 0.01% sodium azide. The HCMV polymerase, which is expressed in recombinant baculovirus-infected SF-9 cells and purified according to literature procedures, is added at 10% (or 10 μl) of the final reaction volume, i.e., 100 μl. Compounds are diluted in 50% DMSO and 10 μl are added to each well. Control wells contain an equivalent concentration of DMSO. Unless noted otherwise, reactions are initiated via the addition of 6 nM biotinylated poly(dA)-oligo(dT) template/primer to reaction mixtures containing the enzyme, substrate, and compounds of interest. Plates are incubated in a 25° C. or 37° C. H2 O bath and terminated via the addition of 40 μl/reaction of 0.5 M EDTA (pH 8) per well. Reactions are terminated within the time-frame during which substrate incorporation is linear and varied depending upon the enzyme and conditions used, i.e., 30 min. for HCMV polymerase. Ten μl of streptavidin-SPA beads (20 mg/ml in PBS/10% glycerol) are added following termination of the reaction. Plates are incubated 10 min. at 37° C., then equilibrated to room temperature, and counted on a Packard Topcount. Linear regressions are performed and IC50 's are calculated using computer software.
A modified version of the above HCMV polymerase assay is performed as described above, but with the following changes: Compounds are diluted in 100% DMSO until final dilution into assay buffer. In the previous assay, compounds are diluted in 50% DMSO. 4.5 mM dithiotherotol (DTT) is added to the polymerase buffer. […] Other viral polymerase assays are performed using procedures similar to those described above.

T1 sequence (P08546 whole entry): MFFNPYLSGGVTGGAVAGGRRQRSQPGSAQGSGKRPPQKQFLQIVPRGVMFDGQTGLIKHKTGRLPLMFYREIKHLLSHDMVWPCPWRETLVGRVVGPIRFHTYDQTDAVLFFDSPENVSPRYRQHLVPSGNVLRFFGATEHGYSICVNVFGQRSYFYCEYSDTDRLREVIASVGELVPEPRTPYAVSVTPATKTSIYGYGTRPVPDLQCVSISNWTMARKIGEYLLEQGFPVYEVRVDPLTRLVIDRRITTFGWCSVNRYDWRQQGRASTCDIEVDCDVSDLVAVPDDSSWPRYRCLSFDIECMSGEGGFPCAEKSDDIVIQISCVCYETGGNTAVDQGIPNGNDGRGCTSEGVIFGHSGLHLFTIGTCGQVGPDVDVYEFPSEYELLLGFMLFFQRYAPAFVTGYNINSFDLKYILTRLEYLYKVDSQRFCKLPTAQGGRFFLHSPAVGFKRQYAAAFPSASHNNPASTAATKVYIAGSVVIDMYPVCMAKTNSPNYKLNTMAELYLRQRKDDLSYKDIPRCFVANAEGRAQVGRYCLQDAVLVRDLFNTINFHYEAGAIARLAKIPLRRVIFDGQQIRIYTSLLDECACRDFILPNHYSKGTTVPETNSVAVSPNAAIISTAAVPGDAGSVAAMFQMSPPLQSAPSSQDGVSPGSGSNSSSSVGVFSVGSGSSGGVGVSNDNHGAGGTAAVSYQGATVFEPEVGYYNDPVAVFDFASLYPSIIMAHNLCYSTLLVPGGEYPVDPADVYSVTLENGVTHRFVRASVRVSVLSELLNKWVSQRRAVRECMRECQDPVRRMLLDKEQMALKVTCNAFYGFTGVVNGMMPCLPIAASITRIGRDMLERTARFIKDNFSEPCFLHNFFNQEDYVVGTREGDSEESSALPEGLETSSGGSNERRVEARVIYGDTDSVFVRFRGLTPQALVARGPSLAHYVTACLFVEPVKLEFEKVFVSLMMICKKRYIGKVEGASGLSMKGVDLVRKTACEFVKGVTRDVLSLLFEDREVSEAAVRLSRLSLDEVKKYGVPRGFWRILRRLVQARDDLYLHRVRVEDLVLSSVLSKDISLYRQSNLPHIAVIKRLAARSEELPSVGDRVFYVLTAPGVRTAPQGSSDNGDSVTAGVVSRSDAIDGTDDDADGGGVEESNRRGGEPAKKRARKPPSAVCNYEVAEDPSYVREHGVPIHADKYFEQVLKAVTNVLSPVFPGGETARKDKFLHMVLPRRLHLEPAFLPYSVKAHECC

| Compound | IC50 [µM] |
| --- | --- |
| CN(CCS(=O)(=O)O)C(=O)CCCCCCC(=O)OCCCc1cc(F)c2ncc(C(=O)NCc3ccc(Cl)cc3)c(O)c2c1 | 11.5 |
| O=C(NCc1ccc(Cl)cc1)c1cnc2c(F)cc(O)cc2c1O [Example 3, N-[(4-Chlorophenyl)methyl]-8-fluoro-4,6-dihydroxy-3-quinoline-carboxamide] | 24 |
| O=C(NCc1ccc(Cl)cc1)c1cnc2c(F)cc(Br)cc2c1O [Example 4] | 3.4 |
| Cc1ccc2c(O)c(C(=O)NCc3ccc(Cl)cc3)cnc2c1 [Example 11, N-[(4-Chlorophenyl)methyl]-4-hydroxy-7-methyl-3-quinoline-carboxamide] | 21.2 |
| O=C(NCc1ccc(Cl)cc1)c1cnc2c(F)ccc(F)c2c1O [Example 17, N-[(4-Chlorophenyl)methyl]-5,8-difluoro-4-hydroxy-3-quinolinecarboxamide] | 3.3 |
| O=C(NCc1ccc(Cl)cc1)c1cnc2c(F)c(F)ccc2c1O [Example 18, N-[(4-Chlorophenyl)methyl]-7,8-difluoro-4-hydroxy-3-quinoline-carboxamide] | < 3.1 |
| COc1cccc2c(O)c(C(=O)NCc3ccc(Cl)cc3)cnc12 [Example 20, N-[(4-Chlorophenyl)methyl]-4-hydroxy-8-methoxy-3-quinoline-carboxamide] | 6.5 |
| N#Cc1ccc2ncc(C(=O)NCc3ccc(Cl)cc3)c(O)c2c1 [Example 24, N-[(4-Chlorophenyl)methyl]-6-cyano-4-hydroxy-3-quinoline-carboxamide] | 4.9 |
| O=C(NCc1ccc(Cl)cc1)c1cnc2cc(NS(=O)(=O)c3ccccc3)ccc2c1O [Example 33, N-[(4-Chlorophenyl)methyl]-4-hydroxy-7-[(phenylsulfonyl)-amino]-3-quinolinecarboxamide] | 24.3 |
| O=C(NCc1ccc(Cl)cc1)c1cnc2cc(NS(=O)(=O)Cc3ccccc3)ccc2c1O [Example 34, N-[(4-Chlorophenyl)methyl]-4-hydroxy-7-[[(phenylmethyl)-sulfonyl]amino]-3-quinolinecarboxamide] | 17.9 |
| O=C(NCc1ccc(Cl)cc1)c1cnc2cc(NS(=O)(=O)c3ccc(Cl)cc3)ccc2c1O [Example 35, N-[(4-Chlorophenyl)methyl]-7-[[(4-chlorophenyl)sulfonyl]amino]-4-hydroxy-3-quinolinecarboxamide] | 9.2 |
| O=C(NNc1ccc(Cl)cc1)c1cnc2c(F)cccc2c1O [Example 36, 8-Fluoro-4-hydroxy-3-quinolinecarboxylic acid 2-(4-chlorophenyl) hydrazide] | 7.8 |
| O=C(NCc1ccc(Cl)cc1)c1cnc2cc(I)ccc2c1O [Example 39, N-[(4-Chlorophenyl)methyl]-4-hydroxy-7-iodo-3-quinolinecarboxamide] | < 3.1 |
| O=C(NCc1ccc(Cl)cc1)c1cnc2ccc(I)cc2c1O [Example 40, N-[(4-Chlorophenyl)methyl]-4-hydroxy-6-iodo-3-quinoline-carboxamide] | 3.5 |
| O=C(NCc1ccc(Cl)cc1)c1cnc2ccc(O)cc2c1O [Example 44, N-[(4-Chlorophenyl)methyl]-4,6-dihydroxy-3-quinoline-carboxamide] | 28.7 |
| O=C(NCc1ccc(Cl)cc1)c1cnc2c(O)cccc2c1O [Example 45, N-[(4-Chlorophenyl)methyl]-4,8-dihydroxy-3-quinoline-carboxamide] | 4.6 |
| O=C(NCc1ccc(Cl)cc1)c1cnc2c(Cl)cccc2c1O [Example 46, 8-Chloro-N-[(4-chlorophenyl)methyl]-4-hydroxy-3-quinolinecarboxamide] | 2.8 |
| O=C(NCc1ccc(Cl)cc1)c1cnc2ccc(S(=O)(=O)Nc3ccnn3-c3ccccc3)cc2c1O [Example 47, N-[(4-Chlorophenyl)methyl]-4-hydroxy-6-[[(1-phenyl-1H-pyrazol-5-yl)amino]sulfonyl]-3-quinolinecarboxamide] | 39.7 |
| N#Cc1cccc2c(O)c(C(=O)NCc3ccc(Cl)cc3)cnc12 [Example 48, N-[(4-Chlorophenyl)methyl]-8-cyano-4-hydroxy-3-quinoline-carboxamide] | 6.5 |
| Cc1c(N)ccc2c(O)c(C(=O)NCc3ccc(Cl)cc3)cnc12 [Example 50, 7-Amino-N-[(4-chlorophenyl)methyl]-4-hydroxy-8-methyl-3-quinolinecarboxamid] | 6.9 |
| N#Cc1cc(F)c2ncc(C(=O)NCc3ccc(Cl)cc3)c(O)c2c1 [Example 51, N-[(4-Chlorophenyl)methyl]-6-cyano-8-fluoro-4-hydroxy-3-quinolinecarboxamide] | 12.2 |
| NC(=S)c1cc(F)c2ncc(C(=O)NCc3ccc(Cl)cc3)c(O)c2c1 [Example 52, 6-(Aminothioxomethyl)-N-[(4-chlorophenyl)methyl]-8-fluoro-4-hydroxy-3-quinolinecarboxamide] | 11 |
| Cc1cc(F)c2ncc(C(=O)NNc3ccc(Cl)cc3)c(O)c2c1 [Example 55, 8-Fluoro-4-hydroxy-6-methyl-3-quinolinecarboxylic acid 2-(4-chlorophenyl)hydrazide] | 5 |
| O=C(NCc1ccc(Cl)cc1)c1cnc2cc(Cl)ccc2c1O [Example 56, 7-Chloro-N-((4-chlorophenyl)methyl)-4-hydroxy-3-quinoline-carboxamide] | 3.1 |
| O=C(NCc1ccc(Cl)cc1)c1cnc2ccc(Br)cc2c1O [Example 57, 6-Bromo-N-((4-chlorophenyl)methyl)-4-hydroxy-3-quinoline-carboxamide] | 5.2 |

More lines, in order of falling IC50, values ahead:

| IC50 [µM] | Compound |
| --- | --- |
| 55.3 | O=C(NCc1ccc(Cl)cc1)c1cnc2cc(C(F)(F)F)cc(C(F)(F)F)c2c1O [Example 8, N-[(4-Chlorophenyl)methyl]-4-hydroxy-5,7-bis(trifluoromethyl)-3-quinolinecarboxamide] |
| 19.2 | O=C(NCc1ccc(Cl)cc1)c1cnc2cccc(O)c2c1O [Example 42, N-[(4-Chlorophenyl)methyl]-4,5-dihydroxy-3-quinolinecarboxamide] |
| 16.5 | CN(CCS(=O)(=O)O)C(=O)CCCCCCC(=O)OCC#Cc1ccc2ncc(C(=O)NCc3ccc(Cl)cc3)c(O)c2c1 |
| 16 | CN(C)c1ccc2c(O)c(C(=O)NCc3ccc(Cl)cc3)cnc2c1 [Example 27, N-[(4-Chlorophenyl)methyl]-7-(dimethylamino)-4-hydroxy-3-quinolinecarboxamide] |
| 12.1 | N#CCc1ccc2ncc(C(=O)NCc3ccc(Cl)cc3)c(O)c2c1 [Example 41, N-[(4-Chlorophenyl)methyl]-6-(cyanomethyl)-4-hydroxy-3-quinolinecarboxamide] |
| 8.6 | O=C(NNc1ccc(Cl)cc1)c1cnc2c(F)cc(I)cc2c1O [Example 54, 8-Fluoro-4-hydroxy-6-iodo-3-quinolinecarboxylic acid 2-(4-chlorophenyl)hydrazide] |
| 5.8 | O=C(NCc1ccc(Cl)cc1)c1cnc2c(F)cc(I)cc2c1O [Example 5, N-[(4-Chlorophenyl)methyl]-8-fluoro-4-hydroxy-6-iodo-3-quinolinecarboxamide] |
| 4.4 | O=C(NCc1ccc(Cl)cc1)c1cnc2ccc(Cl)cc2c1O [Example 21, 6-Chloro-N-[(4-chlorophenyl)methyl]-4-hydroxy-3-quinoline-carboxamide] |
| 4 | Cc1ccc2ncc(C(=O)NCc3ccc(Cl)cc3)c(O)c2c1 [Example 22, N-[(4-Chlorophenyl)methyl]-4-hydroxy-6-methyl-3-quinoline-carboxamide] |
| 3.7 | O=C(NCc1ccc(Cl)cc1)c1cnc2c([N+](=O)[O-])cccc2c1O [Example 49, N-[(4-Chlorophenyl)methyl]-4-hydroxy-8-nitro-3-quinoline-carboxamide] |
| 3.4 | COc1ccc2ncc(C(=O)NCc3ccc(Cl)cc3)c(O)c2c1 [Example 23, N-[(4-Chlorophenyl)methyl]-4-hydroxy-6-methoxy-3-quinoline-carboxamide] |
| 3.2 | Cc1cc(F)c2ncc(C(=O)NCc3ccc(Cl)cc3)c(O)c2c1 [Example 38, N-[(4-Chlorophenyl)methyl]-8-fluoro-4-hydroxy-6-methyl-3-quinolinecarboxamide] |
| 1.3 | O=C(NCc1ccc(Cl)cc1)c1cnc2c(Cl)c(Cl)ccc2c1O [Example 43, 7,8-Dichloro-N-[(4-chlorophenyl)methyl]-4-hydroxy-3-quinolinecarboxamide] |
| 1 | O=C(NCc1ccc(Cl)cc1)c1cnc2ccc(-c3ccccc3)cc2c1O [Example 58, N-((4-Chlorophenyl)methyl)-4-hydroxy-6-phenyl-3-quinoline-carboxamide] |
